The test system of experiment [1] is velvetleaf. The experiment is described as follows: Test A preemergence. The experiment is classed as in vivo, Abutilon theophrasti. As to conditions: Abutilon theophrasti, pre-emergence, 240 h, 0 to 100 scale (0 no effect, 100 complete control), read-out: Plant response rating, Velvetleaf; for pest or weed control at 125 g/ha: 125 g ai/ha; for pest or weed control at 500 g/ha: 500 g ai/ha, approx. 10 d. Summed up: (§1)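 Loam/sand soil mix; compound in non-phytotoxic solvent + surfactant. Pre: directed soil spray right after planting seed. Post: potted plants 2–10 cm, 1–2 leaf stage, sprayed with same formulation.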

For another experiment, the system named is crabgrass, large. The experiment is described as follows: Test A postemergence. It is filed as in vivo, Digitaria sanguinalis. As to conditions: Digitaria sanguinalis, post-emergence, 240 h, 0 to 100 scale (0 no effect, 100 complete control), approx. 10 d, read-out: Plant response rating, Crabgrass, Large; for pest or weed control at 125 g/ha: 125 g ai/ha; for pest or weed control at 500 g/ha: 500 g ai/ha. Summed up: as §1

Experiment [2] deals with velvetleaf. The experiment is described as follows: Test A postemergence. As to conditions: Abutilon theophrasti, post-emergence, 240 h, 0 to 100 scale (0 no effect, 100 complete control), approx. 10 d, read-out: Plant response rating, Velvetleaf; for pest or weed control at 125 g/ha: 125 g ai/ha; for pest or weed control at 500 g/ha: 500 g ai/ha. It is filed as in vivo, Abutilon theophrasti. Summed up: as §1

Another experiment has as its system corn. The experiment is described as follows: Test C preemergence. It is filed as in vivo, Zea mays. The conditions noted are these: for Plant response rating (scale of 0 to 100 where 0 is no effect and 100 is complete control): Corn, preemergence; for Corn plant response rating (0 to 100): Preemergence, visual rating after 13 to 15 d. The source says:
(§2) Seeds of plant species selected from blackgrass (Alopecurus myosuroides), ryegrass, Italian (Italian ryegrass, Lolium multiflorum), wheat (winter wheat, Triticum aestivum), galium (catchweed bedstraw, Galium aparine), corn (Zea mays), crabgrass, large (large crabgrass, Digitaria sanguinalis), foxtail, giant, (giant foxtail, Setaria faberii), johnsongrass (Sorghum halepense), lambsquarters (Chenopodium album), morningglory (Ipomoea coccinea), nutsedge, yellow (yellow nutsedge, Cyperus esculentus), pigweed (Amaranthus retroflexus), ragweed (common ragweed, Ambrosia elatior), soybean (Glycine max), barnyardgrass (Echinochloa crus-galli), oilseed rape (Brassica napus), waterhemp (common waterhemp, Amaranthus rudis), and velvetleaf (Abutilon theophrasti) were planted into a blend of loam soil and sand and treated preemergence with test chemicals formulated in a non-phytotoxic solvent mixture which included a surfactant. At the same time, plants selected from these crop and weed species and also chickweed (common chickweed, Stellaria media), oat, wild (wild oat, Avena fatua), and kochia (Kochia scoparia), were planted in pots containing Sunshine Redi-Earth® planting medium comprising spaghnum peat moss, vermiculite, starter nutrients and dolomitic limestone and treated with postemergence applications of test chemicals formulated in the same manner. Plants ranged in height from 2 to 18 cm (1- to 4-leaf stage) for postemergence treatments. […] A dash (-) response means no test result.

The subject of a further experiment is lambsquarters. The experiment is described as follows: Test C preemergence. It is filed as in vivo, Chenopodium album. As to conditions: for Plant response rating (scale of 0 to 100 where 0 is no effect and 100 is complete control): Lambsquarters, preemergence; for Lambsquarters plant response rating (0 to 100): Preemergence, visual rating after 13 to 15 d.
Source text: as §2

Turning to `Cn1nc(-c2ccc(F)cc2)nc1C(O)c1ccnc(C(F)(F)F)c1` (stereo not drawn) [Compound 14, α-[3-(4-fluorophenyl)-1-methyl-1H-1,2,4-triazol-5-yl]-2-(trifluoromethyl)-4-pyridinemethanol], the pest or weed control at 125 g/ha is 0% in the experiment with velvetleaf [1]; 20% in the experiment on crabgrass, large; 30% in the experiment on velvetleaf [2]. Also, the pest or weed control at 500 g/ha in the experiment with velvetleaf [1] was 0%; in the experiment on crabgrass, large it was 30%; in the experiment on velvetleaf [2], 50%.

On to `CCn1nc(-c2ccc(F)cc2)nc1C(=O)c1ccnc(C(F)(F)F)c1` [Compound 19, [1-ethyl-3-(4-fluorophenyl)-1H-1,2,4-triazol-5-yl][2-(trifluoromethyl)-4-pyridinyl]methanone], for which the pest or weed control at 125 g/ha worked out at 0% with velvetleaf [1]; 0% in the experiment with crabgrass, large; 0% in the experiment with velvetleaf [2]. For the same compound, the pest or weed control at 500 g/ha turned out to be 0% in the experiment on velvetleaf [1]; 0% in the experiment with crabgrass, large; 0% with velvetleaf [2].

In the case of `COc1nc(-c2ccc(F)cc2)nn1Cc1ccnc(C(F)(F)F)c1` [Compound 9, 4-[[3-(4-fluorophenyl)-5-methoxy-1H-1,2,4-triazol-1-yl]methyl]-2-(trifluoromethyl)pyridine], the pest or weed control at 125 g/ha with velvetleaf [1] was 0%; in the experiment with crabgrass, large, 90%; in the experiment with velvetleaf [2] it was 50%. Besides, the pest or weed control at 500 g/ha in the experiment on velvetleaf [1] worked out at 80%; in the experiment with crabgrass, large, 100%; in the experiment with velvetleaf [2], 90%. Further, the “Plant response rating (scale of 0 to 100 where 0 is no effect and 100 is complete control)” value turned out to be 25 with corn (125 g ai/ha), 55 with corn (250 g ai/ha), 98 with lambsquarters (125 g ai/ha) and 98 with lambsquarters (250 g ai/ha). Moreover, the entries for the “Corn plant response rating (0 to 100)” value in the experiment on corn (31 g ai/ha) and in the experiment with corn (62 g ai/ha) were 0 and 5, respectively. The “Lambsquarters plant response rating (0 to 100)” value with lambsquarters (31 g ai/ha) turned out to be 70; in the experiment with lambsquarters (62 g ai/ha) it was 85.

Regarding `CS(=O)(=O)c1nc(-c2ccc(F)cc2)nn1Cc1ccnc(C(F)(F)F)c1` [Compound 29, 4-[[3-(4-fluorophenyl)-5-(methylsulfonyl)-1H-1,2,4-triazole-1-yl]methyl]-2-(trifluoromethyl)pyridine], the pest or weed control at 125 g/ha in the experiment on velvetleaf [1] was found to be 0%; with crabgrass, large, 0%; in the experiment on velvetleaf [2] it was 0%. Also, the pest or weed control at 500 g/ha in the experiment with velvetleaf [1] worked out at 0%; in the experiment with crabgrass, large, 0%; in the experiment with velvetleaf [2] it was 0%.

As to `CCCc1nc(-c2ccc(F)cc2)nn1Cc1ccnc(C(F)(F)F)c1` [Compound 6, 4-[[3-(4-fluorophenyl)-5-propyl-1H-1,2,4-triazol-1-yl]methyl]-2-(trifluoromethyl)pyridine], the pest or weed control at 125 g/ha with velvetleaf [1] turned out to be 40%; with crabgrass, large, 90%; in the experiment with velvetleaf [2], 90%. Also, the pest or weed control at 500 g/ha with velvetleaf [1] was determined as 100%; in the experiment with crabgrass, large, 90%; in the experiment on velvetleaf [2] it was 100%. Also, the “Plant response rating (scale of 0 to 100 where 0 is no effect and 100 is complete control)” value in the experiment with corn (125 g ai/ha) is on record as 50; in the experiment on corn (250 g ai/ha), 50; in the experiment on lambsquarters (125 g ai/ha), 98; with lambsquarters (250 g ai/ha) it was 98. In addition, the results for the “Corn plant response rating (0 to 100)” value in the experiment on corn (31 g ai/ha) and in the experiment on corn (62 g ai/ha) were 15 and 35, respectively. Further, the “Lambsquarters plant response rating (0 to 100)” value in the experiment on lambsquarters (31 g ai/ha) and in the experiment on lambsquarters (62 g ai/ha) was 98 throughout.

As for `COc1nc(-c2ccccc2)nn1Cc1ccnc(C(F)(F)F)c1` [Compound 32], the “Plant response rating (scale of 0 to 100 where 0 is no effect and 100 is complete control)” value is on record as 5 with corn (125 g ai/ha), 20 in the experiment on corn (250 g ai/ha), 80 in the experiment on lambsquarters (125 g ai/ha) and 90 with lambsquarters (250 g ai/ha). Besides, the “Corn plant response rating (0 to 100)” value with corn (31 g ai/ha) and in the experiment with corn (62 g ai/ha) was 0 in each case. In addition, the “Lambsquarters plant response rating (0 to 100)” value in the experiment with lambsquarters (31 g ai/ha) and with lambsquarters (62 g ai/ha) was 60 throughout.

For `Cn1nc(-c2ccc(F)cc2)nc1Oc1cccc(C(F)(F)F)c1` [Compound 5, 3-(4-fluorophenyl)-1-methyl-5-[3-(trifluoromethyl)phenoxy]-1H-1,2,4-triazole], the pest or weed control at 125 g/ha with velvetleaf [1] was 0%; in the experiment with crabgrass, large, 30%; in the experiment on velvetleaf [2], 30%. Besides, the pest or weed control at 500 g/ha in the experiment with velvetleaf [1] turned out to be 0%; in the experiment with crabgrass, large, 90%; in the experiment on velvetleaf [2] it was 60%.

As to `CCCn1nc(-c2ccc(F)cc2)nc1Cc1ccnc(C(F)(F)F)c1` [Compound 17, 4-[[3-(4-fluorophenyl)-1-propyl-1H-1,2,4-triazol-5-yl]methyl]-2-(trifluoromethyl)pyridine], the pest or weed control at 125 g/ha worked out at 90% in the experiment with velvetleaf [1]; 90% with crabgrass, large; 90% in the experiment on velvetleaf [2]. Besides, the pest or weed control at 500 g/ha was determined as 100% in the experiment on velvetleaf [1]; 90% in the experiment with crabgrass, large; 100% in the experiment with velvetleaf [2].

With `CCn1nc(-c2ccc(F)cc2)nc1C(O)c1ccnc(C(F)(F)F)c1` (stereo not drawn) [Compound 15, α-[1-Ethyl-3-(4-fluorophenyl)-1H-1,2,4-triazol-5-yl]-2-(trifluoromethyl)-4-pyridinemethanol], the pest or weed control at 125 g/ha in the experiment on velvetleaf [1] was found to be 0%; in the experiment with crabgrass, large, 0%; in the experiment on velvetleaf [2], 0%. Also, the pest or weed control at 500 g/ha in the experiment with velvetleaf [1] worked out at 0%; in the experiment on crabgrass, large, 10%; in the experiment on velvetleaf [2], 0%.

The values above are taken from patent publication US10681909B2, “Herbicidal triazoles” (FMC Corporation, priority 2014, dated 2020).
